In ChEMBL document CHEMBL3046473, “Effect on Insecticidal Activity of Substituents at the 1,4-Benzodioxanyl Moiety of Haedoxan” (1992) one finds LD50 and Ratio data, which are given here for eight compounds.

Assay [1] deals with Musca domestica. Put plainly: Insecticidal activity against 3-day old Musca domestica (house fly) administered topically measured after 24 hr. Format: functional.
In assay [2] the test system is Musca domestica. Put plainly: Insecticidal activity against 3-day old Musca domestica (house fly) administered topically measured after 24 hr relative to (+)-haedoxan A. Format: functional.

The compound `COc1cc2c(cc1[C@H]1OC[C@]3(O)[C@@H](Oc4c(OC)cccc4OC)OC[C@H]13)OC(COCc1ccccc1)CO2` (mixture of isomers) showed an LD50 in the assay with Musca domestica [1] above 10 µg.

Compound `COc1cc2c(cc1[C@H]1OC[C@]3(O)[C@@H](Oc4c(OC)cccc4OC)OC[C@H]13)OC(CCl)CO2` (mixture of isomers) showed an LD50 with Musca domestica [1] of 5 µg. Further, the Ratio in the assay with Musca domestica [2] amounted to 5e-05.

`COc1cc2c(cc1[C@H]1OC[C@]3(O)[C@@H](Oc4c(OC)cccc4OC)OC[C@H]13)OCCO2`: the LD50 in the assay with Musca domestica [1] was above 10 µg.

Regarding `COc1cc2c(cc1[C@H]1OC[C@]3(O)[C@@H](Oc4c(OC)cccc4OC)OC[C@H]13)OCC(c1ccc3c(c1)OCO3)O2` (mixture of isomers), the LD50 in the assay with Musca domestica [1] was determined as 1 µg. Further, the Ratio in the assay on Musca domestica [2] came to 0.0003.

Take `COC[C@H]1Oc2cc([C@H]3OC[C@]4(O)[C@@H](Oc5c(OC)cc6c(c5OC)OCO6)OC[C@H]34)c(OC)cc2O[C@@H]1c1ccc2c(c1)OCO2` [(+)-HAEDOXAN A]: the LD50 in the assay with Musca domestica [1] worked out at 0.00025 µg.

`COCC1COc2cc(OC)c([C@H]3OC[C@]4(O)[C@@H](Oc5c(OC)cccc5OC)OC[C@H]34)cc2O1` (mixture of isomers): the LD50 in the assay on Musca domestica [1] was determined as 1 µg. Also, the Ratio in the assay on Musca domestica [2] is given as 0.0003.

On to `COc1cc2c(cc1[C@H]1OC[C@]3(O)[C@@H](Oc4c(OC)cccc4OC)OC[C@H]13)OC(CO)CO2` (mixture of isomers), for which the LD50 with Musca domestica [1] was above 10 µg.

For the compound `COc1cc2c(cc1[C@H]1OC[C@]3(O)[C@@H](Oc4c(OC)cccc4OC)OC[C@H]13)OC(COC(C)(C)C)CO2` (mixture of isomers), in the assay on Musca domestica [1], the LD50 worked out at 1 µg. In the assay with Musca domestica [2], the Ratio was 0.0003.
